These results are taken from patent US20060003020A1, “Anti-metastatic ability of mibefradil and gadolinium” (THE REGENTS OF THE UNIVERSITY OF MICHIGAN, priority 2004, published 2006).

Structures are written as SMILES.

Assay [1] has as its system HT1080 cells. As to the kind of experiment: Phagokinetic track assay of HT1080 cell motility. It counts as cell-based. The note with it: for ability of HT1080 cells to clear the surrounding surface / inhibitory effect on clearing of the surface: 22 hours; for ability of HT1080 cells to clear the surrounding surface: brightfield microscopy; for cell motility by swept area ratio (total swept area divided by cell area): dose response, HT1080 cells; for inhibitory effect on clearing of the surface: concentrations expected to block the relevant Ca^2+ channels. How it is done:
HT1080 cells were incubated on gold particle-coated glass coverslips for 22 hours. […] A suspension of 5000 cells/ml was treated with or without Ca^2+ channel blockers then seeded onto the gold-coated coverslips. […] The tracks produced by the cells were viewed by brightfield microscopy with a 10× objective. Thirty randomly selected tracks were measured for each slide.
As cells migrated on these surfaces, the gold particles were cleared from regions of the surface and frequently picked up by the cells, making the cells appear darker and the surrounding area appear lighter when viewed by microscopy.
The size of HT1080 cells varies considerably. To evaluate cell motility, a swept area ratio was used, which calculates total swept area divided by cell area.

The test system of assay [2] is HT1080 cells. In words: High speed microscopy of intracellular Ca^2+ waves in HT1080 cells. The class given is cell-based. Particulars: high speed imaging. How it is done:
Recent studies have shown that Ca^2+ spikes of polarized neutrophils and colorectal tumor cell transfectants are associated with certain intracellular Ca^2+ waves (Kindzelskii et al., J. Immunol. 170:64-72, 2003; Wang et al., J Immunol. 170:795-804, 2003). To visualize these waves, images must be collected using very short shutter speeds to avoid image blurring due to wave motion and indo-1 diffusion while the shutter is open. […]
High speed microscopy was performed using an Axiovert 135 fluorescene microscope with a quartz condenser, quartz objective, and an AttoArc mercury lamp (Zeiss). To detect fluorescence changes in the short wavelength emission region of indo-1, a 355HT15 exciter, a 390LP dichroic reflector, and a 405DF43 emission filter were used. […]
A region of high Ca concentration, seen in the microscope as a bright spot within the cell, was brought about by the local opening of Ca^2+ channels. As indo-1 has a relatively high affinity for Ca^2+ and a finite amount of time was required for the signaling apparatus to pump-down free cytosolic Ca^2+, a low intensity “tail” was observed next to the region of bright Ca^2+ indo-1 fluorescence (i.e., the Ca^2+ wave has a low intensity tail on the side opposite to the direction of wave motion).

Assay [3] has as its system HT1080 cells. As to the kind of experiment: Biocoat Matrigel invasion chamber assay of HT1080 cell invasion. It counts as cell-based. Particulars: 22 hour incubation; for number of migrating cells: control cells approximately 80; for lowest dose that exhibits maximal inhibition of invasiveness: HT1080 cells; for HT1080 cell transmigration: dose response; for effect on cell invasiveness: pharmacologically appropriate doses.

The test system of assay [4] is HT1080 cells. As to the kind of experiment: Microfluorometry of Ca^2+ spikes/oscillations in indo-1 labeled HT1080 cells. Particulars: concentration not given.
Assay [5] relates to HT1080 cells. In words: T-type channel expression and cell shape of mibefradil treated HT1080 cells.
Source text: Thus, it was necessary to determine if blockade of T-type calcium channels on HT1080 cells caused morphological transformation.

On to `NC(=O)c1nnn(Cc2cc(Cl)c(C(=O)c3ccc(Cl)cc3)c(Cl)c2)c1N` [CAI, Carboxyamidotriazole], for which the “ability of HT1080 cells to clear the surrounding surface” value (shortened to “ability of HT1080 cells”) with HT1080 cells [1] (10 μM) is reported as “significantly decreased”.
On to `[Gd+3]` [Gd^3+, gadolinium (Gd^3+)], for which the “propagating Ca^2+ wave after addition” value in the assay on HT1080 cells [2] is recorded as “a Ca^2+ wave was observed in cells before, but not after addition”. Besides, in the assay on HT1080 cells [1] (1.5 μM), the “ability of HT1080 cells” value was “significantly decreased”. In addition, the HT1080 movement result in the assay with HT1080 cells [1] (Six μM) is recorded as “almost completely abolished”. Besides, the “cell motility by swept area ratio (total swept area divided by cell area)” value with HT1080 cells [1] is “significantly inhibited cell motility in a dose-dependent manner”. In the assay on HT1080 cells [3], the “number of migrating cells” value is on record as “approximately 22”, the “lowest dose that exhibits maximal inhibition of invasiveness” value stood at 20 µM and the HT1080 cell transmigration result is on record as “inhibited HT1080 cell transmigration in a dose-dependent fashion”. For the same compound, the “effect on Ca^2+ spikes” value in the assay with HT1080 cells [4] is reported as “Ca^2+ spikes diminished then disappeared”.
On to `COc1ccc(CCCOC(Cn2ccnc2)c2ccc(OC)cc2)cc1` (stereo not shown) [SKF96365], for which, in the assay with HT1080 cells [1], the “inhibitory effect on clearing of the surface” value is given as “no inhibitory effect was observed”. Also, the “effect on cell invasiveness” value in the assay with HT1080 cells [3] is reported as “no effect”.
Taken in the same sequence, the figures for `COc1ccc([C@@H]2Sc3ccccc3N(CCN(C)C)C(=O)[C@@H]2OC(C)=O)cc1` [diltiazem] were “no inhibitory effect was observed” and “no effect”.
Consider `COCC(=O)O[C@]1(CCN(C)CCCc2nc3ccccc3[nH]2)CCc2cc(F)ccc2[C@@H]1C(C)C` [mibefradil], for which the “propagating Ca^2+ wave after addition” value in the assay on HT1080 cells [2] is given as “no propagating Ca^2+ wave was found”. For the same compound, the “ability of HT1080 cells” value in the assay on HT1080 cells [1] (1.5 μM) is “significantly decreased”. In the assay with HT1080 cells [1] (5 μM), the “decrease of cell-swept area compared with control treated cells” value is listed as “approximately 90%”. Moreover, the “cell motility by swept area ratio (total swept area divided by cell area)” value in the assay with HT1080 cells [1] is recorded as “significantly inhibited cell motility in a dose-dependent manner”. Moreover, in the assay on HT1080 cells [3], the “number of migrating cells” value is on record as “approximately 25”, the “lowest dose that exhibits maximal inhibition of invasiveness” value was 5 µM and the HT1080 cell transmigration result is on record as “inhibited HT1080 cell transmigration in a dose-dependent fashion”. The “cell shape / morphological transformation” value with HT1080 cells [5] is listed as “maintain their rounded shape”.
Turning to `COC(=O)C1=C(C)NC(C)=C(C(=O)OCCN(C)Cc2ccccc2)C1c1cccc([N+](=O)[O-])c1` (stereo not shown) [nicardipine], the “effect on cell invasiveness” value in the assay on HT1080 cells [3] is “no effect”.
